Experimental data reported in publication PMC2699670 (Anesthesiology, 2009).
Each block holds one compound with its values, some of them ahead of it.

How the values were obtained:
rat Nav1.4 α-subunit [1] = target: T1, rat Nav1.4 α-subunit (Rattus norvegicus, UniProt P15390); test: whole-cell patch clamp, peak INa; type: cell-based
rat Nav1.4 α-subunit [2] = target: T1, rat Nav1.4 α-subunit; test: whole-cell patch clamp, peak INa; type: cell-based; remark: listed apart in the source

T1 sequence (P15390 whole entry): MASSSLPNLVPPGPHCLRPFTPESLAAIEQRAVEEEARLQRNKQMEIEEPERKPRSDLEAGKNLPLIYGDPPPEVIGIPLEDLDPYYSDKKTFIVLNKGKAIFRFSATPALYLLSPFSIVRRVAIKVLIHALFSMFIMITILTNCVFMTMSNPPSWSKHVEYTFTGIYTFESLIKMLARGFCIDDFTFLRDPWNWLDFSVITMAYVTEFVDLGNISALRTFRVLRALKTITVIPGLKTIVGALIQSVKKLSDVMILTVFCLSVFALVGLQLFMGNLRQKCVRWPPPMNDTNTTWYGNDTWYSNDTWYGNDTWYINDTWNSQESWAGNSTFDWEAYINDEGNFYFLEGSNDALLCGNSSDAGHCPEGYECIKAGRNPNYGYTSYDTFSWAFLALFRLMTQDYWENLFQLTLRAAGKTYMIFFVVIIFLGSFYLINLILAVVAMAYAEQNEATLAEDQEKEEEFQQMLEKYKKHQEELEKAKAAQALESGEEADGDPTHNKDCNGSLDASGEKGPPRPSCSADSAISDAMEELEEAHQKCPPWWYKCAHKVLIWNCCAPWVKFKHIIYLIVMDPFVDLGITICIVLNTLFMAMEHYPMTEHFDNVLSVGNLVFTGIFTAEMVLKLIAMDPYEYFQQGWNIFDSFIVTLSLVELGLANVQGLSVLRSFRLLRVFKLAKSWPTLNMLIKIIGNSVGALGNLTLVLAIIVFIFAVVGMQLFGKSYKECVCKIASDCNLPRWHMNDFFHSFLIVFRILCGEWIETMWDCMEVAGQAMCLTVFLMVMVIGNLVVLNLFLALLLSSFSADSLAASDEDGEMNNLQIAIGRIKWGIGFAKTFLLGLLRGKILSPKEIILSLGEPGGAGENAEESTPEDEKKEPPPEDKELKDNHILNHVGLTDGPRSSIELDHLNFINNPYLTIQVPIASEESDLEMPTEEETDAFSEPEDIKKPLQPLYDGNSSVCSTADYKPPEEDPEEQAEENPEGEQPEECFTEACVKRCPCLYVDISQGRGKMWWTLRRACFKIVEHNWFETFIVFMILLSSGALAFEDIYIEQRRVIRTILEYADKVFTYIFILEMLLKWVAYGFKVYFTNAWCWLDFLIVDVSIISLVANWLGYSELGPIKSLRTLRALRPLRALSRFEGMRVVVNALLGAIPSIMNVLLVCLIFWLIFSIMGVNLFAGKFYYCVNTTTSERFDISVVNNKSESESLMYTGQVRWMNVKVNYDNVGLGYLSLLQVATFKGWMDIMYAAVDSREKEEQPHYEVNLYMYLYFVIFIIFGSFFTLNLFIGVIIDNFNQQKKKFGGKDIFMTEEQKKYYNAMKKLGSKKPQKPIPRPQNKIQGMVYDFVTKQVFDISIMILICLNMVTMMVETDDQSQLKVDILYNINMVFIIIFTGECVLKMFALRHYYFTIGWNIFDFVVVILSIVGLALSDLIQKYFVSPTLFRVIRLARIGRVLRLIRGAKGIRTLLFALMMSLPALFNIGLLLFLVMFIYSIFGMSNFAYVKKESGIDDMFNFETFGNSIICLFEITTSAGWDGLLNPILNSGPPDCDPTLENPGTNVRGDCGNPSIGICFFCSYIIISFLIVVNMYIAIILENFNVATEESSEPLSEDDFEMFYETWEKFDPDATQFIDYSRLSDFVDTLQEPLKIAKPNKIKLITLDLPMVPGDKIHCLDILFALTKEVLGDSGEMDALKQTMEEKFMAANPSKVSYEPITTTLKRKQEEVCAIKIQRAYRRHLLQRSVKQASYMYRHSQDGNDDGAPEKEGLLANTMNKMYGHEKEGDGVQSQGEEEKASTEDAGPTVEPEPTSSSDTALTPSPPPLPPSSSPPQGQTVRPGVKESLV

SMILES: FC(F)OC(F)(F)C(F)Cl (centres unmarked) [enflurane]
- inhibition at 820 µM (rat Nav1.4 α-subunit [1]; read-out: % inhibition at 0.82 mM): 32 ± 6.7%

- inhibition at 420 µM (rat Nav1.4 α-subunit [1]; read-out: % inhibition at 0.42 mM): 32 ± 3.5%
SMILES: FC(F)(F)C(Cl)Br (centres unmarked) [halothane]

- inhibition at 460 µM (rat Nav1.4 α-subunit [1]; read-out: % inhibition at 0.46 mM): 19 ± 1.9%
- IC50 (rat Nav1.4 α-subunit [2]): 1160 µM
SMILES: FC(F)OC(Cl)C(F)(F)F (centres unmarked) [isoflurane]

- inhibition at 440 µM (rat Nav1.4 α-subunit [1]; read-out: % inhibition at 0.44 mM): 17 ± 3.3%
SMILES: FCOC(C(F)(F)F)C(F)(F)F [sevoflurane]
